Results on eight compounds are retold here after patent US4985595A, “Aminobenzamide derivatives” (Daiichi Pharmaceutical Co., Ltd., priority 1984, dated 1991).

One data set has as its system stress ulcer in rat. Nature of the data set: Inhibitory effect on stress ulcer in rat (restraint and water-immersion stress method). Format: in vivo. To be noted: read-out: Inhibitory Effect (%). How it is done: INHIBITORY EFFECT ON STRESS ULCER IN RAT
The compounds of this invention were administered orally to 7 rats weighing about 300 g in each group. After 30 minutes, they were immobilized and immersed in water at 21° C. for 7 hours to prepare the stress ulcer.

The next data set in a line: in vivo. To be noted: mouse, po, mice, orally administered, read-out: acute toxicity (LD50).
The conditions of data set [1]: disclosed in Japanese Patent Application (OPI) No. 18947/81; cited from earlier work.
Where [2] appears, read: 50 mg/kg, oral, rat, 30 minutes before immobilization and immersion in water at 21° C. for 7 hours, *P < 0.05, **P < 0.01.
Where [3] appears, read: 100 mg/kg, oral, rat, 30 minutes before immobilization and immersion in water at 21° C. for 7 hours, *P < 0.05, **P < 0.01.
Setting [4] is: 200 mg/kg, oral, rat, 30 minutes before immobilization and immersion in water at 21° C. for 7 hours, *P < 0.05, **P < 0.01.

SMILES strings stand for the structures. Like-named read-outs stand apart in the source and are kept apart here.

Regarding `COc1ccc(CCNC(=O)CN(CS(=O)(=O)[O-])c2cccc(C(N)=O)c2)cc1OC.[Na+]`, in the data set on stress ulcer in rat (Rattus norvegicus, po, 7 h), the inhibition in vivo at 50 mg/kg came to 34%, the inhibition in vivo at 100 mg/kg was 36% and the inhibition in vivo at 200 mg/kg was 42%. Also, the LD50 in “in vivo” was above 2000 mg/kg.
In the case of `CCNC(=O)c1cccc(NCC(=O)NCCc2ccc(OC)c(OC)c2)c1` [Compound b, 3-((2-((2-(3,4-dimethoxyphenyl)ethyl)amino)-2-oxoethyl)amino)-N-ethylbenzamide], the inhibition in vivo at 50 mg/kg in the data set with stress ulcer in rat (setting [2]) turned out to be 30%. The inhibition in vivo at 100 mg/kg with stress ulcer in rat (setting [3]) was found to be 53%. In the data set with stress ulcer in rat (setting [4]), the inhibition in vivo at 200 mg/kg worked out at 63%.
The matching figures for `CNC(=O)c1cc(OC)ccc1NCC(=O)NCCc1ccc(OC)c(OC)c1` [Compound g]: 45%, 41% and 65%.
Regarding `COc1ccc(CCNC(=O)CNc2cccc(C(=O)N(C)C)c2)cc1OC` [Compound e, 3((2-((2-(3,4-Dimethoxyphenyl)ethyl)amino)-2-oxoethyl)amino)-N,N-dimethylenzamide], the inhibition in vivo at 50 mg/kg in the data set with stress ulcer in rat (setting [2]) was found to be 39%. For the same compound, the inhibition in vivo at 100 mg/kg in the data set with stress ulcer in rat (setting [3]) is 55%. Moreover, the inhibition in vivo at 200 mg/kg in the data set on stress ulcer in rat (setting [4]) is 64%.
`COc1ccc(CCNC(=O)CNc2cccc(C(N)=O)c2)cc1OC.O.O.O` [Control, 2-(3-carbamoylphenylamino)-N-(3,4-dimethoxyphenethyl)acetamide trihydrate]: in data set [1], the “chemical and physical properties (stability)” value was “stable chemical and physical properties”.
On to `CNC(=O)c1cccc(NCC(=O)NCCc2ccc(OC)c(OC)c2)c1` [Compound a], for which the inhibition in vivo at 50 mg/kg with stress ulcer in rat (setting [2]) came to 46%. Also, the inhibition in vivo at 100 mg/kg with stress ulcer in rat (setting [3]) was 60%. Besides, in the data set on stress ulcer in rat (setting [4]), the inhibition in vivo at 200 mg/kg turned out to be 72%.
The matching figures for `COc1ccc(CCNC(=O)CNc2cccc(C(=O)N3CCOCC3)c2)cc1OC` [Compound f, N(2-(3,4-Dimethoxyphenyl)ethyl)-2-((3-morpholinocarbonylphenyl)amino)acetmide]: 10%, 53% and 86%.
Take `CNC(=O)c1ccc(OC)cc1NCC(=O)NCCc1ccc(OC)c(OC)c1` [Compound c, 2-((2-((2-(3,4-dimethoxyphenyl)ethyl)amino)-2-oxoethyl)amino)-4-methoxy-N-methylbenzamide]: the inhibition in vivo at 50 mg/kg with stress ulcer in rat (setting [2]) was 33%. Besides, the inhibition in vivo at 100 mg/kg with stress ulcer in rat (setting [3]) was 36%. Also, the inhibition in vivo at 200 mg/kg in the data set on stress ulcer in rat (setting [4]) came out at 69%. In “in vivo”, the LD50 was above 2000 mg/kg.

What is called LD50 is the dose at which mortality reaches 50%.
